{
  "source": "patent US7132243B2",
  "about": "“Clonal expansion of T cells of unknown specificity and identification of ligand recognized by the clonally expanded T cells” (Juridical Foundation The Chemo-Sero-Therapeutic Research …, priority 2001, dated 2006)",
  "molecules": {"B1": {"name": "purified Cry j I protein: purified major allergen of Japanese cedar (Cryptomeria japonica) pollen (protein)", "chain": "DNPIDSCWRGDSNWAQNRMKLADCAVGFGSSTMGGKGGDLYTVTNSDDDPVNPAPGTLRYGATRDRPLWIIFSGNMNIKLKMPMYIAGYKTFDGRGAQVYIGNGGPCVFIKRVSNVIIHGLYLYGCSTSVLGNVLINESFGVEPVHPQDGDALTLRTATNIWIDHNSFSNSSDGLVDVTLTSTGVTISNNLFFNHHKVMLLGHDDAYSDDKSMKVTVAFNQFGPNCGQRMPRARYGLVHVANNNYDPWTIYAIGGSSNPTILSEGNSFTAPNESYKKQVTIRIGCKTSSSCSNWVWQSTQDVFYNGAYFVSSGKYEGGNIYTKKEAFNVENGNATPQLTKNAGVLTCSLSKRC"}},
  "test_system": "19.6.47 T cells",
  "test": "Proliferation reaction of isolated T cell clone with cedar pollen antigen and synthetic peptide",
  "format": "cell-based, human",
  "conditions": "radiated (45 Gy) PBMC; FIG. 5",
  "protocol": "Purified Cry j I protein (closed bar: 50 μg/ml, hatched bar: […], and open bar: 0.5 μg/ml), Cry j I p301–321 (closed bar: 250 μM, hatched bar: 25 μM, and open bar: 2.5 μM), and irrelevant (irrelevant peptide: […](SEQ ID NO: 3)).\nThe donor of 19.6.47 T cells suffered from hay fever of Japanese cedar pollen and said T cells were established during heavy pollination season. In this respect, a major allergen of Japanese cedar pollen (Cryptomeria japonica I; Cry j I) among the three non-autologous peptides shown in Table 3 was considered to be a possible peptide ligand recognized by said T cell clone. Thus, a synthetic peptide Cry j I p301–321 ([…](SEQ ID NO: 4)) and purified Cry j I protein were examined for their reactivity with the 19.6.47 T cells. A major allergen of Japanese cedar (Cryptomeria japonica) pollen was purified as described in Matsushita, S. et al., J. Immunol., 1987, 138: 109–115.\nThe 19.6.47 T cells were cultured with radiated (45 Gy) PBMC either in the presence of purified Cry j I protein ([…]), Cry j I p301–321 peptide ([…]) or irrelevant peptide.",
  "note": "Where no end group is shown, it is not given here.",
  "data": [
    {"molecule": "DVFYNGAYFVSSGKYEGGNIY (SEQ ID NO: 4) [Cry j I p301–321]", "values": [
      {"measurement": "reactivity with the 19.6.47 T cells (proliferation)", "result": "reacted"}
    ]},
    {"molecule": "B1", "values": [
      {"measurement": "reactivity with the 19.6.47 T cells (proliferation)", "result": "reacted"}
    ]}
  ]
}
